Active and inactive are the calls of the source.
Columns and labels:
[1] = test system: Cell membrane; assay: Disruption of membrane permeability in methicillin resistant Staphylococcus aureus clinical isolate 003 assessed as protein leakage at 2 to 4 times MIC
[2] = test system: Staphylococcus aureus; assay: Antibiofilm activity in methicillin resistant Staphylococcus aureus clinical isolate 003 assessed as destruction of biofilm integrity at 0.5 to 4 times MIC measured after 24 hrs by inverted fluorescence microscopic analysis; type: functional, organism-based
[3] = test system: Staphylococcus aureus; assay: Antibacterial activity against Staphylococcus aureus clinical isolate 31; type: functional
[4] = test system: Cell membrane; assay: Induction of cell membrane damage in methicillin resistant Staphylococcus aureus clinical isolate 003 assessed as increase in green fluorescence at 2 to 4 times MIC by SYTOX Green dye based analysis; type: cell membranes
[5] = test system: Staphylococcus aureus; assay: Antibiofilm activity in methicillin resistant Staphylococcus aureus clinical isolate 003 assessed as reduction in biofilm density at 0.5 to 4 times MIC measured after 24 hrs by inverted fluorescence microscopic analysis; type: functional, organism-based
[6] = test system: Staphylococcus aureus; assay: Antibacterial activity against methicillin resistant Staphylococcus aureus clinical isolate 031; type: functional
[7] = test system: Enterococcus faecalis; assay: Antibiofilm activity in multidrug resistant Enterococcus faecalis ATCC 51299 assessed as destruction of biofilm integrity at 0.5 to 4 times MIC measured after 24 hrs by inverted fluorescence microscopic analysis; type: functional, organism-based
[8] = test system: Cell membrane; assay: Induction of membrane damage in methicillin resistant Staphylococcus aureus clinical isolate 003 assessed as deformation of bacterial surface at 2 to 4 times MIC by SEM analysis; type: cell membranes
[9] = test system: Enterococcus faecalis; assay: Antibacterial activity against multidrug resistant Enterococcus faecalis ATCC 51299 in presence of phosphatidylglycerol; type: functional, organism-based
[10] = test system: Staphylococcus aureus; assay: Antibiofilm activity in methicillin resistant Staphylococcus aureus clinical isolate 003 assessed as inhibition of biofilm formation at 4 times MIC by crystal violet staining based analysis relative to control; type: functional
[11] = test system: Staphylococcus aureus; assay: Antibiofilm activity in methicillin resistant Staphylococcus aureus clinical isolate 003 assessed as biofilm clearance rate at 4 times MIC by crystal violet staining based analysis relative to control; type: functional
[12] = test system: Enterococcus faecalis; assay: Antibacterial activity against multidrug resistant Enterococcus faecalis ATCC 51299; type: functional
[13] = test system: Staphylococcus aureus; assay: Antibacterial activity against methicillin resistant Staphylococcus aureus clinical isolate 011; type: functional
[14] = test system: Enterococcus faecalis; assay: Antibacterial activity against multidrug resistant Enterococcus faecalis ATCC 51299 at 2 to 4 times MIC measured after 8 to 12 hrs by time-kill assay; type: functional, organism-based; conditions: time 8-12 hrs
[15] = test system: Cell membrane; assay: Induction of membrane damage in multidrug resistant Enterococcus faecalis ATCC 51299 assessed as deformation of bacterial surface at 2 to 4 times MIC by SEM analysis; type: cell membranes
[16] = test system: Cell membrane; assay: Disruption of membrane permeability in multidrug resistant Enterococcus faecalis ATCC 51299 assessed as nucleic acid leakage at 2 to 4 times MIC
[17] = test system: Enterococcus faecalis; assay: Antibiofilm activity in multidrug resistant Enterococcus faecalis ATCC 51299 assessed as inhibition of biofilm formation at 4 times MIC by crystal violet staining based analysis relative to control; type: functional
[18] = test system: Cell membrane; assay: Induction of membrane depolarization in multidrug resistant Enterococcus faecalis ATCC 51299 assessed as increase in fluorescence intensity at 2 to 4 times MIC by DiSC3(5) dye based analysis
[19] = test system: Cell membrane; assay: Induction of membrane damage in multidrug resistant Enterococcus faecalis ATCC 51299 assessed as rupture of bacterial surface at 2 to 4 times MIC by SEM analysis; type: cell membranes
[20] = test system: Cell membrane; assay: Induction of cell membrane damage in methicillin resistant Staphylococcus aureus clinical isolate 003 assessed as increase in red fluorescence at 2 to 4 times MIC by PI staining based analysis; type: cell membranes
[21] = test system: Enterococcus faecalis; assay: Antibacterial activity against multidrug resistant Enterococcus faecalis ATCC 51299 in presence of peptidoglycan; type: functional, organism-based
[22] = test system: Staphylococcus aureus; assay: Bactericidal activity against methicillin-resistant Staphylococcus aureus clinical isolate 003 assessed as inhibition of bacterial growth by measuring ratio of MBC to MIC; type: functional
[23] = test system: Cell membrane; assay: Induction of membrane depolarization in methicillin resistant Staphylococcus aureus clinical isolate 003 assessed as increase in fluorescence intensity at 2 to 4 times MIC by DiSC3(5) dye based analysis
[24] = test system: Enterococcus faecalis; assay: Antibacterial activity against Enterococcus faecalis clinical isolate 7; type: functional
[25] = test system: Cell membrane; assay: Disruption of membrane permeability in methicillin resistant Staphylococcus aureus clinical isolate 003 assessed as nucleic acid leakage at 2 to 4 times MIC
[26] = test system: Cell membrane; assay: Induction of cell membrane damage in multidrug resistant Enterococcus faecalis ATCC 51299 assessed as increase in red fluorescence at 2 to 4 times MIC by PI staining based analysis; type: cell membranes
[27] = test system: Enterococcus faecalis; assay: Antibacterial activity in multidrug resistant Enterococcus faecalis ATCC 51299 at sub-MIC measured after 20 passages; type: functional, organism-based
[28] = test system: Staphylococcus aureus; assay: Antibacterial activity against methicillin resistant Staphylococcus aureus clinical isolate 003 in presence of peptidoglycan; type: functional, organism-based
[29] = test system: Cell membrane; assay: Disruption of membrane permeability in methicillin resistant Staphylococcus aureus clinical isolate 003 assessed as increase in ROS accumulation at 2 to 4 times MIC measured after 1 hr
[30] = test system: Cell membrane; assay: Induction of cell membrane damage in multidrug resistant Enterococcus faecalis ATCC 51299 assessed as increase in green fluorescence at 2 to 4 times MIC by SYTOX Green dye based analysis; type: cell membranes
[31] = test system: Staphylococcus aureus; assay: Antibacterial activity against methicillin resistant Staphylococcus aureus clinical isolate 003 in presence of phosphatidylethanolamine; type: functional, organism-based
[32] = test system: Enterococcus faecalis; assay: Antibiofilm activity in multidrug resistant Enterococcus faecalis ATCC 51299 assessed as biofilm clearance rate at 4 times MIC by crystal violet staining based analysis relative to control; type: functional
[33] = test system: Cell membrane; assay: Disruption of membrane permeability in methicillin resistant Staphylococcus aureus clinical isolate 003 assessed as increase in fluorescence intensity at 4 to 8 times MIC by PI staining based analysis
[34] = test system: Staphylococcus aureus; assay: Antibiofilm activity in methicillin resistant Staphylococcus aureus clinical isolate 003 assessed as biofilm clearance at 0.5 to 4 times MIC by crystal violet staining based analysis; type: functional, organism-based
[35] = test system: Cell membrane; assay: Disruption of membrane permeability in multidrug resistant Enterococcus faecalis ATCC 51299 assessed as increase in ROS accumulation at 2 to 4 times MIC measured after 1 hr
[36] = test system: Staphylococcus aureus; assay: Antibacterial activity against methicillin resistant Staphylococcus aureus clinical isolate 003 in presence of phosphatidylglycerol; type: functional, organism-based
[37] = test system: Cell membrane; assay: Induction of cell membrane damage in multidrug resistant Enterococcus faecalis ATCC 51299 assessed as bacterial death at 2 to 4 times MIC by confocal laser scanning microscopy; type: cell membranes
[38] = test system: Enterococcus faecalis; assay: Antibiofilm activity in multidrug resistant Enterococcus faecalis ATCC 51299 assessed as biofilm clearance at 0.5 to 4 times MIC by crystal violet staining based analysis; type: functional, organism-based
[39] = test system: Staphylococcus aureus; assay: Antibacterial activity against Staphylococcus aureus clinical isolate 29; type: functional
[40] = test system: Cell membrane; assay: Induction of membrane damage in methicillin resistant Staphylococcus aureus clinical isolate 003 assessed as rupture of bacterial surface at 2 to 4 times MIC by SEM analysis; type: cell membranes
[41] = test system: Staphylococcus aureus; assay: Antibacterial activity against methicillin-resistant Staphylococcus aureus clinical isolate 003 at 2 to 4 times MIC measured after 8 to 12 hrs by time-kill assay; type: functional, organism-based; conditions: time 8-12 hrs
[42] = test system: Enterococcus faecalis; assay: Antibacterial activity against multidrug resistant Enterococcus faecalis ATCC 51299 in presence of phosphatidylethanolamine; type: functional, organism-based
[43] = test system: Staphylococcus aureus; assay: Antibacterial activity against methicillin resistant Staphylococcus aureus clinical isolate 003 in presence of cardiolipin; type: functional, organism-based

CCCCCCc1c(-c2ccc(OCC(=O)CN[C@H](CCCNC(=N)N)C(=O)OC)cc2OCC(=O)CN[C@H](CCCNC(=N)N)C(=O)OC)oc2cc(OC)cc(O)c2c1=O
<4: Ratio [22]
active: Activity [1] | Activity [2] Dose-Dependent Effect | Activity [4] | Activity [5] Dose-Dependent Effect | Activity [7] Dose-Dependent Effect | Activity [8] | Activity [14] | Activity [15] | Activity [16] | Activity [18] Dose-Dependent Effect | Activity [19] | Activity [20] | Activity [21] | Activity [23] Dose-Dependent Effect | Activity [25] | Activity [26] | Activity [27] | Activity [28] | Activity [29] | Activity [30] | Activity [33] | Activity [34] Dose-Dependent Effect | Activity [35] | Activity [37] | Activity [38] Dose-Dependent Effect | Activity [40] | Activity [41]
inactive: Activity [9] | Activity [31] | Activity [36] | Activity [42] | Activity [43]
32 µg/mL: MIC [12]
1 µg/mL: MIC [3] | MIC [13]
~80%: Activity [11] | Activity [32]
2 µg/mL: MIC [6] | MIC [39]
>90%: inhibition (INH) [10] | inhibition (INH) [17]
64 µg/mL: MIC [24]
